What is called IC50 is the concentration needed to halve the response being measured. Usually pIC50 stands for the IC50 on a negative log10 scale, so that one unit is a factor of ten.

The target in assay [1] is BoNT/ALC. The experiment in a line: confirmation, biochemical, FRET, cleavage-site specific substrates (AID 651691). Particulars: FRET protease cleavage assay, BoNT/A LC or LF.
Assay [2] concerns the target LF. Described as above. Particulars: FRET protease cleavage assay, BoNT/A LC or LF.

The structures appear in SMILES notation. pIC50: −log10 of the molar value. Calls of active or inactive are those of the source. The rule behind the calls is not given here. Bounds are passed on as bounds.

With `O=[N+]([O-])c1ccc(C2=NN(c3ccccc3)C(c3ccco3)C2)cc1` (stereo not given), in assay [1], the IC50 is > 20000 nM (inactive).
Turning to `c1ccc(-c2cn3nc(-c4ccccc4)c(-c4ccccc4)nc3n2)cc1`, the negative logarithm of the IC50 (pIC50) in assay [1] was 6.30.
Regarding `O=C(Nc1ccc2nc(-c3cccs3)c(-c3cccs3)nc2c1)NC1CC1`, the IC50 entry in assay [2] was “inactive”. In addition, the IC50 in assay [1] is > 20000 nM (inactive).
As for `Cc1ccc(-c2cn3nc(-c4ccccc4)c(-c4ccccc4)nc3n2)cc1`, the IC50 result in assay [2] is “inactive”. Further, the pIC50 in assay [1] was 6.52.
Regarding `Clc1ccc(-c2cn3nc(-c4ccccc4)c(-c4ccccc4)nc3n2)cc1`, the IC50 entry in assay [2] is “inactive”. Besides, the negative logarithm of the IC50 (pIC50) in assay [1] is 6.15.
As for `COc1ccc(-c2cn3nc(-c4ccccc4)c(-c4ccccc4)nc3n2)cc1`, the IC50 entry in assay [2] is “inactive”. For the same compound, the pIC50 in assay [1] was 6.30.
Take `O=[N+]([O-])c1ccc(N2N=C(c3ccccc3)CC2c2ccccc2)cc1` (stereo not given): the negative logarithm of the IC50 (pIC50) in assay [1] was 6.00.
Still for that read-out and setting: then `O=C(Nc1ccc2nc(-c3cccs3)c(-c3cccs3)nc2c1)N1CCCCC1`, with 5.92.
In the case of `O=C(Nc1ccc2nc(-c3cccs3)c(-c3cccs3)nc2c1)N1CCOCC1`, the IC50 in assay [1] was > 20000 nM (inactive).
`COc1ccccc1N1N=C(c2ccc([N+](=O)[O-])cc2)CC1c1ccccc1` (stereo not given): the negative-log IC50 (pIC50) in assay [1] is 6.70.
Same read-out and setting: then `COc1ccc(C2CC(c3cccs3)=NN2c2nc(C)c(C(C)=O)s2)cc1OC` (stereo not given), with 5.89.

Values taken from PubChem BioAssay AID651691 (NMMLSC, 2012).
